Like-named read-outs stand apart in the source and are kept apart here.
What was measured:
human IRAK-4 = target: T1, human IRAK-4 (Homo sapiens, UniProt Q9NWZ3); assay: Phosphorylation IC50 determination for human IRAK-4 (ADP-Glo kinase assay); type: biochemical; details: RIP140 substrate, Km ATP, read-out: IRAK4 IC50
T1 construct: purchased Carna Biosciences 09 145
T1 sequence (Q9NWZ3 1-460): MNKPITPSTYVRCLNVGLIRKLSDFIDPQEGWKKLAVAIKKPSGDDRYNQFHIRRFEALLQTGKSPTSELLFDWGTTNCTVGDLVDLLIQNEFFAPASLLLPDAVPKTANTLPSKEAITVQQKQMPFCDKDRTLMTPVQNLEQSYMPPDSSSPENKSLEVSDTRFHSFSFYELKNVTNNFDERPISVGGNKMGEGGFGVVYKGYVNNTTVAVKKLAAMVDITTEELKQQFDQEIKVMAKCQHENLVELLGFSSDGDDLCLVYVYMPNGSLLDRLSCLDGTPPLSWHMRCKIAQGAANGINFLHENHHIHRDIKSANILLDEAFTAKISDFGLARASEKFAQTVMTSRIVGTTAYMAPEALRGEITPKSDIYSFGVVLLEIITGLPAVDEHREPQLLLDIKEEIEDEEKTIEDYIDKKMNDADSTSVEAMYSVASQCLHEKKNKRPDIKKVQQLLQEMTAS
Experimental: 3.1. Phosphorylation IC50 Determination for Human IRAK-4
The phosphorylation of the substrate RIP140 (SEQ IDi1) by IRAK4 at Km ATP was detected with the ADP-Glo Kinase Assay (Promega, Cat #V9103), a luminescent kinase assay which measures the ADP formed from a kinase reaction. (Zegzouti et al., 2009) In a second step the kinase reaction is terminated and all the remaining ATP was depleted. In a final step the ADP was converted into ATP and this newly synthesized ATP was measured by using a luciferase/luciferin reaction with a luminescent reader. The luminescent signal positively correlated with kinase activity, in particular kinase inhibition giving a decrease of the luminescent signal.
For the semi-automated assay, the positive control (100% inhibition) was prepared by diluting 10 mM staurosporine stock mixture (20 μL) in water (3.8 mL) and DMSO (180 μL), thus resulting in a […] staurosporine solution at 1% DMSO (final concentration after further dilution in the kinase reaction).
For the automated assay, no pre-dilution of the 10 mM staurosporine stock was made. 10 mM staurosporine was spotted directly in the assay plate using acoustic dispensing and complemented with DMSO to result in a similar final concentration as mentioned above.
For the semi-automated assay, the negative control (0% inhibition) was prepared by mixing water (3.8 mL) and DMSO (200 μL) resulting in a final concentration of 1% DMSO after further dilution in the kinase reaction. For the automated assay no pre-dilution of DMSO was done. 100% DMSO was spotted directly on the assay plate.
The assay buffer solution was prepared at a concentration corresponding to 5 fold the final (most diluted) assay concentration by mixing a solution of 125 mM TRIS pH 7.5+0.05% Triton X-100+2.5 mM EGTA (5.27 mL) with 1M MgCl2 (72 μL), 1M DTT (57.6 μL), and 200 mM MnCl2 (360 μL).
For example, for the semi-automated method, the enzyme-substrate mixture was prepared by mixing water (3999 μL), assay buffer solution (1380 μL), 1 mM RIP140 (138 μL—SEQ ID1), and 200 ng/mL IRAK 4 (3.45 μL Carna Biosciences, 09 145).
For semi-automated method, the ATP mixture was prepared at a concentration corresponding to 2.5 fold the final (most diluted) assay concentration of the semi-automated method and 1.5 fold the final (most diluted) assay concentration of the automated method. For example, for the semi-automated method, the ATP mixture was prepared by mixing water (4126 μL), assay buffer solution (1380 μL), and 10 mM ATP (13.80 μL).
The assay was performed either in a semi-automated or fully automated manner. The assay volume and the incubation time of the ADP detection were different accordingly the method used.
3.1.3.1. Semi-Automated Assay
The compounds were prepared as a serial dilution of 10 point dose responses with 1/5 dilution steps in 100% DMSO starting from 2 mM highest concentration, diluted 1/20 in water. 1 μL was transferred dry to the assay plates.
On each assay plate 32 wells of each control (positive & negative) were added, followed by 2 μL enzyme-substrate mixture.
The reaction was started by adding 2 μL diluted ATP (final concentration Km ATP) on the assay plates. Plates were centrifuged for a few seconds at 1000 rpm followed by an incubation at r.t. for 120 min.
The reactions were stopped and the unconsumed ATP was depleted by adding 5 μL ADP-glo Reagent (Promega, Cat #V9103) to the reaction. The plates were quickly centrifuged at 1000 rpm and incubated at r.t. for 40 min corresponding to full ATP depletion.
The ADP was converted back to ATP and luciferase and luciferin were introduced to detect ATP by adding 10 μL kinase detection reagent (Promega, Cat #V9103) to the reaction. The plates were centrifuged for a few seconds at 1000 rpm and incubated at r.t. for a further 30 min.
Luminescent read out was performed on an Envision luminescent reader (Perkin Elmer). […]

[1] = system: CL097 triggered IFNα release in human whole blood; assay: Ex vivo human IFNα release inhibition (human whole blood assay); type: cell-based; details: Homo sapiens, CL097 2 μg/mL, 3 h 30 min at 37° C.
Description: (§1) 4.10.1. Ex Vivo Human IFNα and TNFα Release Inhibition (Human Whole Blood Assay)
(§2) The aim of the assay is to evaluate the activity of compounds of the invention on the activated TLR/IRAK-4 pathway in an ex vivo human whole blood setting. Toll-like receptors (TLRs) are pattern recognition receptors that recognize a wide variety of microbial molecules, called pathogen-associated molecular patterns (PAMPs). Human TLR7 and TLR8 recognize imidazoquinoline compounds (e.g., CL097—CAS n #1026249-18-2) and single stranded RNAs as their natural ligands. Activation of TLRs leads to the production of several cytokines (e.g., IFNα, TNFα, IL-8, IL-6) by the TLR agonist-treated cells, whereas IRAK4 leads to the production of IFNα. Cytokine release is used as readout in this assay and represents a measure for the level of inhibition of the TLR/IRAK-4 pathway by the tested compound. It should be noted that in the context of the complete organism, other sources for these cytokines exist that are not dependent on the TLR/IRAK-4 pathway, such as e.g., macrophages (upon activation of the Fcγ receptor (Yan et al., 2012)) or T cells (upon activation of the T cell receptor (Brehm et al., 2005)).
(§3) 4.10.1.1. Experimental Design
(§4) Blood was collected from healthy volunteers into lithium heparin tubes by venipuncture, then gently inverted several times to prevent clotting and incubated for at least 15 min at 37° C. on a rocking mixer shaker. Then, 100 μL of blood was dispensed into polypropylene 96-well microplate and pre-incubated in duplicate with 0.3% DMSO or test compound at different concentrations (from 30 to 0.01 μM, 3-fold dilutions to get 0.3% DMSO at the final) for 15 min at 37° C. After this pre-incubation, blood was triggered with CL097 (2 μg/mL from 1 mg/mL solution in water; InvivoGen, tlrl-c97) for 3 h 30 min at 37° C. Microtubes were centrifuged at 5000×g for 10 min at 4° C. and approximately 40 μL of plasma were collected into a polystyrene 96-well plate. Plasma could be analyzed freshly, within 30 min after triggering, or frozen at −80° C. Finally, the quantification of TNFα and IFNα were performed in the plasma using AlphaLISA Kit for TNFα and IFNα according to the manufacturer's instructions and read on the Ensight (PerkinElmer).
A standard curve was created by plotting on log-log the mean […] on the y-axis against the concentration on the x-axis and a 4-parameters logistic regression (4PL) was made through the points. For each blood sample, the IFNα concentrations of the samples were determined from the fit. Data were then expressed as a percentage of inhibition (PIN) for each replicate using the formula:
With mean IFNα with CL097=mean IFNα concentration of replicate samples triggered with CL097; IFNαsample1=IFNα concentration of sample 1; mean IFNα with vehicle=mean IFNα concentration of replicate samples treated with vehicle.
(§5) Curve fitting for pIC50 determination were generated using mean PIN±sem. Graphs and pIC50 calculations were derived using Prism 5.03 software (GraphPad).

[2] = system: CL097 triggered TNFα release in human whole blood; assay: Ex vivo human TNFα release inhibition (human whole blood assay); type: cell-based; details: Homo sapiens, CL097 2 μg/mL, 3 h 30 min at 37° C.
Description: as §1, §2, §3, §4
For each blood sample, the TNFα concentrations of the samples were determined from the fit. Data were then expressed a percentage of inhibition PIN for each replicate using the formula:
With mean TNFα with CL097=mean TNFα concentration of replicate samples triggered with CL097; TNFαsample1=TNFα concentration of sample 1; mean TNFα with vehicle=mean TNFα concentration of replicate samples treated with vehicle.
as §5

Thermodynamic solubility = type: physicochemical; details: 37 °C, thermodynamic from solid
Description: 4.2. Thermodynamic Solubility
Poor solubility, in particular poor thermodynamic solubility can limit the absorption of compounds from the gastrointestinal tract which in turn may reduce oral bioavailability.
Thermodynamic solubility investigates the solubility of a compound as a saturated solution in equilibrium, by opposition to kinetic solubility, which measures the solubility of a metastable solution where supersaturation may occur and provide over estimation of the actual solubility of the compound. (Klein, 2010)
4.2.2. Thermodynamic Solubility—Protocol 2
In a 8 mL glass vial, 1-2 mg of dry matter of compound were added and stirred with the suitable buffers (Fed State Simulated Intestine Fluid, FeSSIF, or Fasted State Simulated Intestine Fluid, FaSSIF, or Fasted State Simulated Gastric Fluid, FaSSGF, or phosphate buffer pH 7.4) for 24 h at r.t. (for the buffer pH 7.4) or 37° C. (for the GI fluids). The concentration of the mixture was 1 mg/mL.
A volume of 1000 μL were sampled, centrifuged for 10 min at 10 000 rpm and 500 μL of the supernatant were filtered on captiva plate. The samples were diluted in duplicates in DMSO (F100 and F10). Then, a final dilution (F100) in 80/20 H2O/MeCN containing the internal standard (warfarin) was used for LCMS-MS analysis.
A standard curve was made starting from a 40,000 ng/mL stock in DMSO, freshly prepared from dry matter. Then, successive concentrations at 15,000, 11,000, 6,000, 2,500, 1,000, 375, 150 and 75 ng/mL in DMSO were prepared.
Three quality control samples were made: one of 10,000, 1,500 and 200 ng/mL in DMSO, also starting from the DMSO working stock solution at 40,000 ng/mL.
The standard curve and quality controls were diluted a F100 in 80/20 H2O/MeCN (with internal standard) and analyzed on LC/MS-MS (API4000 or API5500).
The samples were analyzed on LC-MS with a flow rate of 0.6 mL/min. The mobile phase A was 0.1% formic acid in water and the mobile phase B was 0.1% formic acid in 90% MeCN and 10% of H2O. The sample was run under positive or negative ion spray on Pursuit C18—5 μm (2.0×20 mm) column, from Agilent.
The ratio analyte/internal standard peaks areas of the standard curve were plotted in a graph and a linear or polynomial of the second order equation was used to calculate the unknown concentrations of the test compound.
Solubility values were reported in μg/mL.

SMILES | IC50 (human IRAK-4) [nM] | IC50 [1] [nM] | IC50 [2] [nM] | solubility thermodynamic at 24 h (Thermodynamic solubility; Fasted State Simulated Gastric Fluid (FaSSGF), fassgf or other biorelevant, Fasted State Simulated Gastric Fluid, read-out: Tsol FaSSGF) [µg/mL] | solubility thermodynamic at 24 h (Thermodynamic solubility; Fasted State Simulated Intestine Fluid (FaSSIF), fassif, Fasted State Simulated Intestine Fluid, read-out: Tsol FaSSIF) [µg/mL]
COc1cn2nc(CCS(C)(=O)=O)cc2cc1NC(=O)c1cccn(C2CC2)c1=O [Compound 6, 1-cyclopropyl-N-[6-methoxy-2-(2-methylsulfonylethyl)pyrazolo[1,5-a]pyridin-5-yl]-2-oxo-pyridine-3-carboxamide] | 5 to 10 | 500 to 1000 | 0.1 to 500 |  | 
NC(=O)c1cn2nc(C3CCOCC3)cc2cc1NC(=O)c1cccc(C(F)(F)F)n1 [Compound 11, 2-tetrahydropyran-4-yl-5-[[6-(trifluoromethyl)pyridine-2-carbonyl]amino]pyrazolo[1,5-a]pyridine-6-carboxamide] | 0.1 to 5 |  |  |  | 
CNC(=O)c1cn2nc(C3CCOCC3)cc2cc1NC(=O)c1cccc(C(F)(F)F)n1 [Compound 14, N-methyl-2-tetrahydropyran-4-yl-5-[[6-(trifluoromethyl)pyridine-2-carbonyl]amino]pyrazolo[1,5-a]pyridine-6-carboxamide] | 5 to 10 |  |  | < 0.75 | < 0.75

Source: patent US20220218679A1, “NOVEL COMPOUNDS AND PHARMACEUTICAL COMPOSITIONS THEREOF FOR THE TREATMENT OF INFLAMMATORY DISORDERS” (Galapagos NV, priority 2019, published 2022)
